Measurements as given in publication PMC12287315 (Nature Communications, 2025).

What was measured:
GPR139 / Gα11 = assay: G protein BRET assay, Gα11 activation; format: cell-based, human; details: in words; for GPR139 coupling activity with Gα11: 10 µM
GPR139 / GαoA = assay: G protein BRET assay, GαoA activation; format: cell-based, human; details: 10 µM; in words
GPR139 [1] = biological target: T1, GPR139 (Homo sapiens, UniProt Q6DWJ6); format: binding; details: in words
T1 sequence (Q6DWJ6 1-353): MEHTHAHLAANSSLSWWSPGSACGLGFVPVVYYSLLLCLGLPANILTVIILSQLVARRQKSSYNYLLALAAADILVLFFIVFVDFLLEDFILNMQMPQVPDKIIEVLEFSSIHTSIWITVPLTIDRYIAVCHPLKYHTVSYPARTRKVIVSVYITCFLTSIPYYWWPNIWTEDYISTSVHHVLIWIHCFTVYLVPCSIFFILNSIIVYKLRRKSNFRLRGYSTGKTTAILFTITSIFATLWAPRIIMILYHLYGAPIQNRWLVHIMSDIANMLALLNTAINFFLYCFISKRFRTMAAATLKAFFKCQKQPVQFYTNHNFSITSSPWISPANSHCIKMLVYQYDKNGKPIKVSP

MHb neurons [2] = assay: Live calcium imaging; format: cell-based, mouse; details: in words
GPR139 [3] = biological target: T1, GPR139; assay: CalFluxVTN BRET calcium assay, GPR139-transfected HEK293T/17 cells; format: cell-based; details: in words
[4] = tested on: NAc neurons of Pdyn-Cre mice; format: cell-based, mouse; details: 10 μM JNJ-3792165; in words
HiBit-GPR139 = assay: HiBiT-GPR139 surface abundance / internalization assay, HEK293T/17 cells; details: 40 μM Dyngo-4a, 10 μM PitStop 2, 4 mM MβCD applied 15 min before; 40 μM Dyn A13; in words
MHb neurons [5] = format: cell-based, mouse
[6] = tested on: GPR139-SmBit / β-arrestin2; assay: NanoBiT β-arrestin2 recruitment assay; format: cell-based, human
[7] = tested on: GPR139-SmBit / β-arrestin1; assay: NanoBiT β-arrestin1 recruitment assay; format: cell-based, human

α-MSH
GPR139 coupling activity with Gα11 (GPR139 / Gα11): did not show any significant coupling activity
GPR139 coupling activity with GαoA (GPR139 / GαoA): did not show any significant coupling activity

L-enk: inactive Leu-enkephalin as a negative control
competition with [3H]-JNJ-63533054 binding (GPR139 [1]): no competition
GPR139 coupling activity with Gα11 (GPR139 / Gα11): Neither did we observe G protein activation
GPR139 coupling activity with GαoA (GPR139 / GαoA): Neither did we observe G protein activation

Cc1cccc(NC(=O)c2cc(C)n(Cc3c(Cl)cccc3Cl)n2)c1 [JNJ-3792165]
effect on Dyn A17-induced Ca2+ response (MHb neurons [2]): completely blocked
effect of antagonist on peptide-induced Ca2+ responses (GPR139 [3]; 10 μM JNJ-3792165): blocked
effect on jGCaMP7s response to optogenetic stimulation [4]: completely abolished

methyl-beta-cyclodextrin [MβCD]
effect on Dyn A13-mediated GPR139 internalization (HiBit-GPR139): had no effect

C=CCN1CC[C@]23c4c5ccc(O)c4O[C@H]2C(=O)CC[C@@]3(O)[C@H]1C5 [naloxone]
effect on Dyn A17 inhibition of neuronal firing (MHb neurons [5]): blocked
block of G protein activation by GPR139 (GPR139 / Gα11; 100 µM Naloxone, 5 µM Dyn A17): did not block G protein activation by GPR139

adrenocorticotropic hormone (SYSMEHFRWGKPVGKKRRPVKVYPNGAEDESAEAFPLEF; Corticotropin; UniProt P01189 138-176, looked up) [ACTH]
competition with [3H]-JNJ-63533054 binding (GPR139 [1]): only modest binding
GPR139 coupling activity with Gα11 (GPR139 / Gα11): did not show any significant coupling activity
GPR139 coupling activity with GαoA (GPR139 / GαoA): did not show any significant coupling activity
CalFluxVTN signal compared to control cells not expressing GPR139 (GPR139 [3]; 10 μM, 3 independent experiments): significant signals

C[C@H](NC(=O)CNC(=O)c1cccc(Cl)c1)c1ccccc1 [JNJ-63533054]
β-arrestin 2 recruitment to GPR139 [6]: did not observe recruitment of β-arrestins
β-arrestin 1 recruitment to GPR139 [7]: did not observe recruitment of β-arrestins
